The results in this text go back to patent US7696218B2, “Substituted 1,3-dialkyl-2,4-dioxo-6-(arylamino)-1,2,3,4-tetrahydropyrimidine-5-hydroxamic acid inhibitors of MAPK/ERK kinase” (Takeda San Diego, Inc., priority 2006, dated 2010).

The target of the test is T1, MEK2 (Homo sapiens, UniProt P36507, S222E/S226D).
T1 construct: 6-histidine tag (N); made in house; host or cells: Spodoptera frugiperda Sf9 (baculovirus) for MEK2; E. coli for ERK1
T1 sequence (P36507 with tags, fused parts or gaps S222E/S226D): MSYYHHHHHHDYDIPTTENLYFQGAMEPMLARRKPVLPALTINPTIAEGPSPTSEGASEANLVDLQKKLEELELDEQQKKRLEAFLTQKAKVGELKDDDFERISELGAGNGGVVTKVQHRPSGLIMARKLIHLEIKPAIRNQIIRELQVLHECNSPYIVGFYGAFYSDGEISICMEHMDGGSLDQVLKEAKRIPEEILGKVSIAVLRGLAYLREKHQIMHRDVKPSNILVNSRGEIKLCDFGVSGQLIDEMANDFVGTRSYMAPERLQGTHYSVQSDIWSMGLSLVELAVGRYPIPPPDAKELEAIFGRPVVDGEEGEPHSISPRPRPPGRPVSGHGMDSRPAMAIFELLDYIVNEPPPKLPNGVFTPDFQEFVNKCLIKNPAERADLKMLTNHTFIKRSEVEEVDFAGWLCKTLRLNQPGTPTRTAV
Description: MEK2 inhibition assay, fluorescence polarization with IMAP beads (ERK1 / FI-Erktide substrate). Type of test: biochemical. As to conditions: 4 nM MEK2, 25 nM ERK1, 400 μM ATP, 500 nM FI-Erktide, 1% DMSO, 22 min at room temperature; values given as ranges; read-out: IC50 of Exemplified Compounds Against MEK2. An excerpt: For MEK2, DNA encoding residues 1-400 (S222E/S226D) of the full-length sequence of the human enzyme may be amplified by PCR and cloned into pFastbac (Invitrogen), which incorporates a 6-histidine tag at the N-terminus. The two mutations, S222E and S226D, may be obtained by quick change PCR. SEQ ID NO: 3 corresponds to residues 1-400 with mutations S222E/S226D, and with the N-terminal 6-histidine tag and SEQ ID NO: 4 is the DNA sequence that was used to encode SEQ ID NO: 3.
Recombinant baculovirus incorporating the MEK1 and MEK2 constructs may be generated by transposition using the Bac-to-Bac system (Invitrogen). High-titer viral stocks may be generated by infection of Spodoptera frugiperda Sf9 cells; the expression of recombinant protein may be carried out by infection of Spodoptera frugiperda Sf9 (Invitrogen) in 5L Wave Bioreactors (Wave Biotech).
Recombinant protein may be isolated from cellular extracts by passage over ProBond resin (Invitrogen). Partially purified extracts of all MEK1 may then be further purified by high pressure liquid chromatography over a SEC2000 gel filtration resin. The purity of MEK1 and MEK2 proteins may be determined on denaturing SDS-PAGE gel. Purified MEK1 and MEK2 may then be concentrated to a final concentration of 3.4 mg/ml and 5.4 mg/ml, respectively. The proteins may be either stored at −78° C. in a buffer containing 50 mM TRIS-HCl pH 7.6, 250 mM NaCl, 0.1 mM EDTA and 0.125 mM TCEP or at −20° C. in the presence of glycerol (final concentration of glycerol at 50%).
The inhibitory properties of compounds relative to MEK1 or MEK2 may be determined using a black 384-well-plate format under the following reaction conditions: 50 mM HEPES pH 7.3, 10 mM NaCl, 10 mM MgCl2, 0.01% Brij35, 1 nM MEK1 or 4 nM MEK2, 25 nM ERK1, 400 μM ATP, 500 nM IPTTPITTYFFFK-5FAM-COOH (FI-Erktide), and 1% DMSO. Reaction product is determined quantitatively by fluorescent polarization using progressive IMAP beads from Molecular Devices.
The assay reaction may be initiated as follows: 2 μl of the mixture of 1.5 μM FI-Erktide and 75 nM ERK with 2 μl of inhibitor (2 fold serial dilutions for 11 data points for each inhibitor) containing 3% DMSO were added to each well of the plate, followed by the addition of 2 μl of the mixture of 3 nM MEK1 or 12 nM MEK2 and 1200 μM ATP to initiate the reaction (final enzyme concentration was 1 nM for MEK1 or 4 nM for MEK2). The reaction mixture may then be incubated at room temperature for 22 min, and quenched and developed by addition of 20 μl of 1:200 dilution of progressive IMAP beads (Molecular Devices) in 80% buffer A, 20% bufferB and 0.003% Tween 20. Fluorescence polarization of the resulting reaction mixtures may be measured after a 1 hour incubation at room temperature.
IC50 values may be calculated by non-linear curve fitting of the compound concentrations and fluorescence polarization signal to the standard IC50 equation.
(In general: In fluorescence polarisation assays a small probe gives low polarisation when free and higher when bound to something large.)
For the molecule `Cn1c(Nc2ccc(I)cc2F)c(C(=O)NCCN2CCCC2)c(=O)n(C)c1=O` [Example 33, 6-(2-Fluoro-4-iodophenylamino)-1,3-dimethyl-2,4-dioxo-N-(2-(pyrrolidin-1-yl)ethyl)-1,2,3,4-tetrahydropyrimidine-5-carboxamide], the IC50 was 2500 to 25000 nM.

`Cn1c(Nc2ccc(I)cc2F)c(C(=O)NOCC[C@H](O)CO)c(=O)n(C)c1=O` [Example 34, (S)-N-(3,4-Dihydroxybutoxy)-6-(2-fluoro-4-iodophenylamino)-1,3-dimethyl-2,4-dioxo-1,2,3,4-tetrahydropyrimidine-5-carboxamide]: the IC50 is 2500 to 25000 nM.

Consider `Cc1cc(I)ccc1Nc1c(C(=O)NOCCO)c(=O)n(C)c(=O)n1C` [Example 35, N-(2-Hydroxyethoxy)-6-(4-iodo-2-methylphenylamino)-1,3-dimethyl-2,4-dioxo-1,2,3,4-tetrahydropyrimidine-5-carboxamide], for which the IC50 is at most 500 nM.

For `Cn1c(Nc2ccc(I)c(F)c2F)c(C(=O)NOC[C@H](O)CO)c(=O)n(C)c1=O` [Example 36, (R)-6-(2,3-Difluoro-4-iodophenylamino)-N-(2,3-dihydroxypropoxy)-1,3-dimethyl-2,4-dioxo-1,2,3,4-tetrahydropyrimidine-5-carboxamide], the IC50 is 501 to 2500 nM.

Consider `Cn1c(Nc2ccc(I)cc2F)c(C(=O)NOC[C@@H](O)CO)c(=O)n(C)c1=O` [Example 37, (S)-N-(2,3-Dihydroxypropoxy)-6-(2-fluoro-4-iodophenylamino)-1,3-dimethyl-2,4-dioxo-1,2,3,4-tetrahydropyrimidine-5-carboxamide], for which the IC50 was at most 500 nM.

On to `Cc1cc(I)ccc1Nc1c(C(=O)NOC[C@H](O)CO)c(=O)n(C)c(=O)n1C` [Example 38, (R)-N-(2,3-Dihydroxypropoxy)-6-(4-iodo-2-methylphenylamino)-1,3-dimethyl-2,4-dioxo-1,2,3,4-tetrahydropyrimidine-5-carboxamide], for which the IC50 is at most 500 nM.

Take `Cn1c(Nc2ccc(I)cc2Cl)c(C(=O)NOC[C@@H](O)CO)c(=O)n(C)c1=O` [Example 39, (S)-6-(2-chloro-4-iodophenylamino)-N-(2,3-dihydroxypropoxy)-1,3-dimethyl-2,4-dioxo-1,2,3,4-tetrahydropyrimidine-5-carboxamide]: the IC50 was at most 500 nM.

On to `Cn1c(Nc2cc(F)c(I)cc2F)c(C(=O)NOC[C@H](O)CO)c(=O)n(C)c1=O` [Example 40, (R)-6-(2,5-Difluoro-4-iodophenylamino)-N-(2,3-dihydroxypropoxy)-1,3-dimethyl-2,4-dioxo-1,2,3,4-tetrahydropyrimidine-5-carboxamide], for which the IC50 was over 25000 nM.

As for `CCc1cc(Nc2c(C(=O)NOCCO)c(=O)n(C)c(=O)n2C)ccc1I` [Example 41, 6-(3-Ethyl-4-iodophenylamino)-N-(2-hydroxyethoxy)-1,3-dimethyl-2,4-dioxo-1,2,3,4-tetrahydropyrimidine-5-carboxamide], the IC50 is over 25000 nM.

Consider `Cn1c(Nc2ccc(I)cc2F)c(C(=O)NCCN)c(=O)n(C)c1=O` [Example 42, N-(2-Aminoethyl)-6-(2-fluoro-4-iodophenylamino)-1,3-dimethyl-2,4-dioxo-1,2,3,4-tetrahydropyrimidine-5-carboxamide], for which the IC50 was in the range of 501 to 2500 nM.

Consider `Cn1c(Nc2ccc(I)cc2F)c(C(=O)N2CCNCC2)c(=O)n(C)c1=O` [Example 43, 6-(2-Fluoro-4-iodophenylamino)-1,3-dimethyl-5-(piperazine-1-carbonyl)pyrimidine-2,4(1H,3H)-dione], for which the IC50 was over 25000 nM.

Regarding `Cn1c(Nc2ccc(I)cc2F)c(C(=O)N2CCN(CCO)CC2)c(=O)n(C)c1=O` [Example 44, 6-(2-Fluoro-4-iodophenylamino)-5-(4-(2-hydroxyethyl)piperazine-1-carbonyl)-1,3-dimethylpyrimidine-2,4(1H,3H)-dione], the IC50 is over 25000 nM.

For the molecule `CN(C)NC(=O)c1c(Nc2ccc(I)cc2F)n(C)c(=O)n(C)c1=O` [Example 45, 6-(2-Fluoro-4-iodophenylamino)-N′,N′,1,3-tetramethyl-2,4-dioxo-1,2,3,4-tetrahydropyrimidine-5-carbohydrazide], the IC50 lay in the range of 501 to 2500 nM.

As to `CCn1c(=O)c(C(=O)NOCCO)c(Nc2ccc(I)cc2F)n(C)c1=O` [Example 48, 3-Ethyl-6-(2-fluoro-4-iodophenylamino)-N-(2-hydroxyethoxy)-1-methyl-2,4-dioxo-1,2,3,4-tetrahydropyrimidine-5-carboxamide], the IC50 is over 25000 nM.

As to `CCn1c(Nc2ccc(I)cc2F)c(C(=O)NOCCO)c(=O)n(C)c1=O` [Example 51, 1-Ethyl-6-(2-fluoro-4-iodophenylamino)-N-(2-hydroxyethoxy)-3-methyl-2,4-dioxo-1,2,3,4-tetrahydropyrimidine-5-carboxamide], the IC50 was over 25000 nM.

For the molecule `Cn1c(=O)c(C(=O)NOC[C@H](O)CO)c(Nc2ccc(I)cc2F)n(CF)c1=O` [Example 54, (R)-N-(2,3-Dihydroxypropoxy)-6-(2-fluoro-4-iodophenylamino)-1-(fluoromethyl)-3-methyl-2,4-dioxo-1,2,3,4-tetrahydropyrimidine-5-carboxamide], the IC50 fell in the range of 501 to 2500 nM.

Regarding `Cn1c(Nc2ccc(I)cc2F)c(C(=O)NCCO)c(=O)n(C)c1=O` [Example 55, 6-(2-Fluoro-4-iodophenylamino)-N-(2-hydroxyethyl)-1,3-dimethyl-2,4-dioxo-1,2,3,4-tetrahydropyrimidine-5-carboxamide], the IC50 was 501 to 2500 nM.

`Cn1c(Nc2ccc(I)cc2F)c(C(=O)NOC[C@H](O)CCO)c(=O)n(C)c1=O` [Example 56, 6-(2-Fluoro-4-iodo-phenylamino)-1,3-dimethyl-2,4-dioxo-1,2,3,4-tetrahydropyrimidine-5-carboxylic acid ((R)-2,4-dihydroxy-butoxy)-amide]: the IC50 is 501 to 2500 nM.

For the molecule `Cn1c(Nc2ccc(I)cc2F)c(C(=O)NOC[C@@H](O)CCO)c(=O)n(C)c1=O` [Example 57, 6-(2-Fluoro-4-iodo-phenylamino)-1,3-dimethyl-2,4-dioxo-1,2,3,4-tetrahydropyrimidine-5-carboxylic acid ((S)-2,4-dihydroxy-butoxy)-amide], the concentration for half-maximal inhibition (IC50) was at most 500 nM.

`Cn1c(Nc2ccc(I)cc2F)c(C(=O)N2CC(O)C2)c(=O)n(C)c1=O` [Example 58, 6-(2-Fluoro-4-iodo-phenylamino)-5-(3-hydroxy-azetidine-1-carbonyl)-1,3-dimethyl-1H-pyrimidine-2,4-dione]: the concentration for half-maximal inhibition (IC50) fell in the range of 2500 to 25000 nM.

Broadly, the IC50 is the concentration at which inhibition is half-maximal.
